Source: paper PMC6361113 (Cancer chemotherapy and pharmacology, 2017)
Values joined by “and” are separate entries in the source; they are usually repeats but may differ in a detail not shown here. Equal values may be shown once. Read-outs that look alike come from different tables or passages of the source. Each block holds one molecule with its values, some of them ahead of it.

Columns and labels:
[1] = cited from earlier work
[2] = cited from earlier work; remark: listed apart in the source
[3] = cited from earlier work; remark: listed apart in the source
[4] = format: in vivo, human
[5] = cited from earlier work; remark: listed apart in the source
[6] = olaparib tablets 200 mg, noncompartmental; cited from earlier work
[7] = Population pharmacokinetic; format: in vivo, human
[8] = tested on: blood/PMBCs; details: in vitro; cited from earlier work
[9] = cited from earlier work; remark: listed apart in the source
[10] = cited from earlier work; remark: listed apart in the source
[11] = olaparib monotherapy, clinical trials
[12] = this study, carboplatin pre-treatment
[13] = final population PK model, inter-individual variability
[14] = 400 mg capsule dose, estimated range
[15] = 400 mg capsule dose, typical averages
[16] = patients with CLcr = 50–80 mL/min, prescribing information
[17] = prescribing information, 400 mg BID capsules
[18] = n = 4, ref unpublished findings from the drug sponsor (NCT00516724)
[19] = ref unpublished findings from the drug sponsor

SMILES: N.N.O=C([O-])C1(C(=O)[O-])CCC1.[Pt+2] [carboplatin]
- terminal plasma half-life [1]: 2 to 3 h
- plasma protein binding ([1]; human, in vivo): not plasma protein bound
- dose excreted within 12 h ([1]; patients with normal renal function (CLcr > 60 mL/min)): 65%

- half-life ([4]; human, plasma, oral, 200 mg): ~3 h
- V/F, first 200 mg dose of olaparib alone ([4]; this study, Group A C1D1, before carboplatin): 31.1 L
- decrease in olaparib AUCLAST in presence of carboplatin [4, 12]: 1.3 fold
- decrease in olaparib CMAX in presence of carboplatin [4, 12]: 1.2 fold
- IIV CL/F bootstrap estimate (%RSE) ([7]; bootstrap, 1000 replicates): 57.0% (7.06%) %CV
- IIV Tlag bootstrap estimate (%RSE) ([7]; bootstrap, 1000 replicates): 70.7% (19.6%) %CV
- IIV V/F bootstrap estimate (%RSE) ([7]; bootstrap, 1000 replicates): 38.4% (9.78%) %CV
- BSV on the CL/F parameter explained by carboplatin covariate ([7]; final covariate model): ~2%
- IIV CL/F point estimate (%RSE) ([7]; final population PK model, inter-individual (between-subject) variability): 55.0% (7.98%) %CV
- IIV Tlag point estimate (%RSE) [7, 13]: 87.1% (13.5%) %CV
- IIV V/F point estimate (%RSE) [7, 13]: 37.3% (9.23%) %CV
- change in volume of distribution relative to carboplatin pretreatment ([7]; in vivo): No change in volume of distribution
- correlation (r) of creatinine clearance with olaparib clearance ([7]; population model): < 0.005
SMILES: O=C(c1cc(Cc2n[nH]c(=O)c3ccccc23)ccc1F)N1CCN(C(=O)C2CC2)CC1 [olaparib]
- change in olaparib plasma protein binding by carboplatin [2]: no change in olaparib plasma protein binding
- patients having hematologic toxicity ([3]; olaparib capsules combined with carboplatin, likely due to carboplatin): 82%
- grade 1–2 fatigue [3, 11]: ~30%
- grade 1–2 nausea [3, 11]: ~32%
- grade 1–2 vomiting [3, 11]: ~20%
- CL/F point estimate, previous population PK model ([5]; 100 mg olaparib tablets BID with cisplatin and gemcitabine, 23 advanced cancer patients): 6.48 L/h and 6.5 L/h
- V/F point estimate, previous population PK model ([5]; 100 mg olaparib tablets BID with cisplatin and gemcitabine, 23 patients): 38.7 L
- half-life of first dose olaparib, previous population PK model ([5]; 100 mg olaparib tablets BID with cisplatin and gemcitabine): 4 h
- absorption rate (Ka), previous population PK model ([5]; single compartment absorption model): 2 h⁻¹
- CL/F NCA estimate [6]: 6.08 L/h
- intracellular olaparib when blood/PMBCs were pretreated with carboplatin [8]: greater intracellular olaparib
- clearance [9, 14]: 7.0 to 10.8 L/h
- volume of distribution [9, 14]: 107 to 210 L
- AUC [9, 15]: 10000 to 70000 ng·h/mL
- CMax [9, 15]: 1 to 6.4 µg/mL
- CL/F, other literature value [9]: 4.6 L/h
- V/F, other literature value [9]: 40.3 L
- half-life ([9]; elimination rate calculated over a 72-h period): 12 h
- increase in olaparib AUC in mild renal impairment [9, 16]: 1.2 fold
- increase in olaparib CMAX in mild renal impairment [9, 16]: 1.5 fold
- apparent plasma CL/F [9, 17]: 8.6 (±7.1) L/h
- apparent volume of distribution at steady-state (Vss/F) [9, 17]: 167 (±196) L
- AUC mean ([9]; tablet dose of 200 mg): 43000 ng·h/mL
- CL/F mean ([9]; tablet dose of 200 mg): 7.95 L/h
- CMAX mean ([9]; tablet dose of 200 mg): 7 µg/mL
- V/F mean ([9]; tablet dose of 200 mg): 146 L
- lower olaparib CMAX with carboplatin pre-exposure [10, 18]: 14.8%
- lower steady state olaparib AUC with carboplatin pre-exposure [10, 18]: 11.0%
- lower olaparib AUC with carboplatin pre-exposure [10, 19]: 14%
- lower olaparib CMAX with carboplatin pre-exposure [10, 19]: 17%
